Target: rSe-DSP1 (Se-DSP1; dorsal switch protein 1)
Experiment: thermal shift assay (Protein Thermal Shift dye), melting temperature vs ligand concentration
Parameters: species or system Spodoptera exigua
Conditions: 500 ng protein; ligand 0-8 uM; compounds dissolved in DMSO

Kd [nM] | SMILES
238 ± 40 | O=C(O)c1ccccc1O [salicylic acid]
119 ± 20 | CCOc1cc(O)ccc1OC [3-ethoxy-4-methoxyphenol]

Reference: paper PMC8023496, “Immune mediation of HMG-like DSP1 via Toll-Spätzle pathway and its specific inhibition by salicylic acid analogs” (PLoS Pathogens, 2021)
